According to ChEMBL document CHEMBL1201862, “PubChem BioAssay data set” (2004):
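Protocol summary: plate cells (96-well), add compound at 5 concentrations, incubate 48 h, interpolate endpoints linearly. GI50: concentration for 50% inhibition of growth.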 The source made the active and inactive calls. Rule as the data show it: active = GI50 up to about 1.1 µM and inactive = higher.

Assays:
Experiment in all cases: NCI anticancer screen, dose series, 48 h
A549 = test system: A549
CCRF-CEM = test system: CCRF-CEM
COLO 205 = test system: COLO 205
HCC 2998 = test system: HCC 2998
HCT-116 = test system: HCT-116
HOP-62 = test system: HOP-62
HOP-92 = test system: HOP-92
LXFL 529 = test system: LXFL 529
NCI-H23 = test system: NCI-H23
OVCAR-3 = test system: OVCAR-3
RPMI-8226 = test system: RPMI-8226
RXF 393 = test system: RXF 393
SF-295 = test system: SF-295
SK-MEL-28 = test system: SK-MEL-28
SK-MEL-2 = test system: SK-MEL-2
SK-MEL-5 = test system: SK-MEL-5
U-251 = test system: U-251

Measured: GI50

NS(=O)(=O)c1ccc(NC(=O)COC(=O)c2cccc3c(=O)c4ccccc4[nH]c23)cc1
inactive: A549 46.9 µM | CCRF-CEM 38.5 µM | COLO 205 > 88.3 µM | HCC 2998 39.4 µM | HCT-116 17.7 µM | HOP-62 18.5 µM | HOP-92 16.5 µM | LXFL 529 7.93 µM | NCI-H23 21.4 µM | OVCAR-3 20.5 µM | RPMI-8226 > 100 µM | RXF 393 17.5 µM | SF-295 23.9 µM | SK-MEL-28 50.8 µM | SK-MEL-2 19.5 µM | SK-MEL-5 > 83.4 µM | U-251 14.4 µM

C[P+](C)(C)C
inactive: A549 > 100 µM | CCRF-CEM > 100 µM | COLO 205 > 100 µM | HCC 2998 > 100 µM | HCT-116 > 100 µM | HOP-62 > 100 µM | HOP-92 > 100 µM | LXFL 529 > 100 µM | NCI-H23 > 100 µM | OVCAR-3 > 100 µM | RPMI-8226 > 100 µM | RXF 393 > 100 µM | SF-295 > 100 µM | SK-MEL-28 > 100 µM | SK-MEL-2 > 100 µM | SK-MEL-5 > 100 µM | U-251 > 100 µM

Clc1ccc2c(c1)[nH]c1c2nc2sccn21
inactive: A549 > 100 µM | CCRF-CEM > 100 µM | COLO 205 > 100 µM | HCC 2998 > 100 µM | HCT-116 > 100 µM | HOP-62 > 100 µM | HOP-92 > 100 µM | LXFL 529 > 100 µM | NCI-H23 > 100 µM | OVCAR-3 > 100 µM | RPMI-8226 > 100 µM | RXF 393 > 100 µM | SF-295 > 100 µM | SK-MEL-28 > 100 µM | SK-MEL-2 > 100 µM | SK-MEL-5 > 100 µM | U-251 > 100 µM

CC(C(=O)Oc1ccc2ccccc2c1-c1c(O)ccc2ccccc12)c1ccccc1 (stereo not drawn)
inactive: A549 13.6 µM | CCRF-CEM 16.3 µM | COLO 205 17.1 µM | HCC 2998 14.5 µM | HCT-116 12.9 µM | HOP-62 15.5 µM | HOP-92 10.3 µM | LXFL 529 14.1 µM | NCI-H23 14.4 µM | OVCAR-3 12.6 µM | RPMI-8226 15.3 µM | RXF 393 11 µM | SF-295 12.7 µM | SK-MEL-28 15.4 µM | SK-MEL-2 15.1 µM | SK-MEL-5 13.7 µM | U-251 15.1 µM
